Here are results for 28 compounds from PubChem BioAssay (NCI).

Holding throughout (experiment): DTP human tumour cell line panel, 48 h
The test system of experiment [1] is SK-MEL-28 melanoma.
Experiment [2] concerns IGROV1 ovarian.
In experiment [3] the test system is HCT-116 colon.
Experiment [4] has as its system SK-MEL-2 melanoma.
Experiment [5] has as its system SW-620 colon.
Experiment [6] concerns CAKI-1 renal.
In experiment [7] the test system is U251 CNS.
Experiment [8] relates to MDA-MB-231 breast.
The subject of experiment [9] is PC-3 prostate.
The subject of experiment [10] is DU-145 prostate.
The subject of experiment [11] is SNB-75 CNS.
The test system of experiment [12] is MDA-MB-435.

Molecules are shown by their SMILES.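 Test compounds were applied to cells in 96-well plates for 48 hours at 5 doses. GI50 marks 50% less growth. TGI: total growth inhibition.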

The TGI is the concentration at which net growth stops. Take `CN(C)C(=S)Nc1nnc(NC23CC4CC(CC(C4)C2)C3)s1`: the TGI in experiment [1] worked out at 31.3 µM; in [2] it was 72.8 µM; in experiment [3], 33 µM; in experiment [4], 44.7 µM; in experiment [5] it was 38.3 µM; in [6], 68.8 µM. The total growth inhibition concentration (TGI) in experiment [7] turned out to be 25.3 µM.

For `CN1CCc2c(sc3nc(Nc4ccccc4)n(N)c(=O)c23)C1`, the total growth inhibition concentration (TGI) in experiment [8], in experiment [2], in experiment [9], in experiment [3], in [10] and in experiment [4] was over 100 µM each time. This compound yielded a TGI in [6] of over 100 µM.

Take `COC1/C=C\C=C(/C)C(=O)NC2=CC(=O)C=C(C2=O)C(OC)C(C)CC(OC)C(OC)C(C)/C=C(/C)C1OC(N)=O` (configuration not stated): the TGI in experiment [1] came out at 19.8 µM; in experiment [2], 26 µM; in experiment [11] it was 31.6 µM; in [3], 10.3 µM; in experiment [4], 20.5 µM; in experiment [5], 2.8 µM. Further, the figures for the TGI in [6] and in [7] were 26.3 µM and 25.8 µM, respectively.

As for `NNC(N)=Nc1cccc2ccccc12`, the TGI in [1], in experiment [8], in experiment [2], in experiment [11], in experiment [3] and in experiment [12] was over 100 µM in each case. Also, the TGI in [10], in experiment [5] and in [7] was over 100 µM in each case.

Turning to `C=CCn1c2ccccc2c2c(C)c3cnccc3c(C)c21`, the TGI was over 125 µM in [1]; 95.3 µM in experiment [2]; 57.4 µM in [11]; 46.9 µM in [3]; over 71 µM in [4]; 59.1 µM in experiment [5]. Moreover, the TGI in [6] worked out at 6.75 µM; in [7], 81.3 µM.

With `O=C(O)CC(NC(=O)C(F)(F)F)C(=O)NC1Cc2ccccc2OC1=O` (configuration not stated), the TGI in experiment [1], in experiment [2], in experiment [11], in [9], in experiment [12] and in [10] was over 100 µM throughout. For the same compound, the TGI in experiment [4], in experiment [5], in experiment [6] and in [7] was over 100 µM in each case.

Turning to `CC(C)OP(=O)(OC(C)C)C(C(F)(F)F)C(F)(F)F`, the concentration for total growth inhibition (TGI) in experiment [1], in [2], in experiment [11], in experiment [9], in experiment [3] and in [12] was over 100 µM in each case. The TGI in [10], in [4], in experiment [5], in experiment [6] and in experiment [7] was over 100 µM throughout.

For orientation: GI50 means the concentration at which growth is held to half of that of the control. Take `CN(Cc1cnc2nc(N)nc(N)c2n1)c1ccc(C(=O)NC(CCS(=O)(=O)O)C(=O)O)cc1` (configuration not stated): the TGI in experiment [1], in [8], in [2], in experiment [11], in experiment [9] and in experiment [12] was over 100 µM in each case. The TGI in experiment [4], in [5] and in experiment [6] was over 100 µM throughout. Moreover, in experiment [11], the GI50 was 96 µM.

Consider `CN(c1c(Cl)cccc1Cl)S(=O)(=O)c1ccccc1[N+](=O)[O-]`, for which the TGI in [1], in [2], in experiment [11], in [9], in experiment [3] and in [12] was over 100 µM throughout. Further, the TGI in experiment [10], in experiment [4], in [5], in experiment [6] and in [7] was over 100 µM in each case.

`C=C1C(=O)OC2/C=C(\C)CC/C=C(/C)CC(OC(=O)/C(=C/CO)CO)C12` (configuration not stated): the total growth inhibition concentration (TGI) is 77.2 µM in experiment [1]; over 100 µM in [2]; over 100 µM in experiment [11]; over 100 µM in experiment [9]; 82.5 µM in [12]; 33.1 µM in [10]. Also, the TGI in [4] is 64 µM; in experiment [5], 63.1 µM; in experiment [6], 34 µM; in experiment [7], 47 µM.

As for `O=C(Nc1ccc(Cl)cc1)c1cc(S(=O)(=O)Nc2n[nH]c(=O)[nH]2)c(SSc2cc(Cl)c(C(=O)Nc3ccc(Cl)cc3)cc2S(=O)(=O)Nc2n[nH]c(=O)[nH]2)cc1Cl`, the TGI in experiment [1], in experiment [8], in experiment [2], in experiment [11], in [9] and in experiment [3] was over 100 µM each time. The TGI in experiment [12], in [4], in [5], in experiment [6] and in experiment [7] was over 100 µM each time.

As for `Cc1ccc2nc3c(C(=O)NCCN(C)C)cccc3cc2c1`, the total growth inhibition concentration (TGI) was found to be 6.67 µM in experiment [1]; 6.5 µM in [2]; 8.26 µM in [11]; 6.71 µM in experiment [3]; 5.3 µM in experiment [4]; 5.45 µM in experiment [5]. In experiment [7], the total growth inhibition concentration (TGI) was 11.7 µM.

On to `NS(=O)(=O)c1nnc(NC(=O)CCC(=O)O)s1`, for which the TGI in experiment [1], in experiment [8], in experiment [3], in experiment [12], in experiment [10] and in experiment [4] was over 100 µM in each case. For the same compound, the TGI in [5], in experiment [6] and in experiment [7] was over 100 µM in each case.

Take `O=C(NC(=O)c1cn(CCN2CCNCC2)c(=O)[nH]c1=O)OCc1ccccc1`: the TGI in experiment [11], in [3], in experiment [5], in experiment [6] and in experiment [7] was over 100 µM each time.

As to `NCCCNCCSSCc1ccccc1CSSCCNCCCN`, the TGI is over 100 µM in [1]; over 100 µM in experiment [2]; 70 µM in experiment [11]; over 100 µM in experiment [4]; over 100 µM in experiment [5]; over 100 µM in experiment [6]. In experiment [7], this compound returned a TGI of over 100 µM.

With `CC(=O)OCC1C(C(C)OC(C)=O)CCC2C1CCC1(C)C(OC(C)=O)CCC21` (configuration not stated), the TGI was 29.1 µM in experiment [1]; 30.7 µM in experiment [8]; 42.1 µM in [2]; 29.2 µM in experiment [3]; 34.6 µM in experiment [12]; over 100 µM in experiment [10]. The total growth inhibition concentration (TGI) is 38.2 µM in [5], over 100 µM in experiment [6] and 30.5 µM in experiment [7].

For the compound `CSCCC(NC(=O)C(Cc1ccccc1)NC(=O)CNC(=O)CNC(=O)C(N)Cc1ccc(O)cc1)C(=O)O` (configuration not stated), the TGI in experiment [1], in [2], in [11], in experiment [3], in [4] and in [5] was over 100 µM each time. Also, the TGI in experiment [6] and in experiment [7] was over 100 µM throughout.

Turning to `COc1ccc2nc(-c3ccc(OC(=O)N(C)C)cc3)cn2c1`, the TGI in experiment [1], in [8], in experiment [2], in experiment [11], in experiment [9] and in experiment [3] was over 100 µM throughout. For the same compound, the TGI in [12], in [4], in experiment [5], in experiment [6] and in [7] was over 100 µM in each case.

For the compound `CC1=CC(c2ccccc2)OP1(=O)c1ccccc1` (configuration not stated), the concentration for total growth inhibition (TGI) in experiment [1], in experiment [2], in experiment [11], in experiment [9], in [3] and in experiment [12] was over 100 µM each time. The TGI in [10], in experiment [4], in [5], in [6] and in experiment [7] was over 100 µM each time.

With `CSc1ccc2c(c1)c(CCN)c(C)n2Cc1ccc(Cl)c(Cl)c1`, the GI50 is 1.67 µM in experiment [1]; 1.69 µM in experiment [8]; 1.32 µM in experiment [11]; 1.67 µM in experiment [9]; 1.73 µM in [10]; 1.74 µM in [4]. In [6], the GI50 was 1.82 µM. Moreover, the TGI in experiment [1] was found to be 3.17 µM; in [8], 3.39 µM; in experiment [11], 2.6 µM; in experiment [9] it was 3.11 µM; in [10], 3.21 µM; in experiment [4] it was 3.34 µM. For the same compound, the concentration for total growth inhibition (TGI) in experiment [6] was 3.85 µM.

As for `CC(/C=C/c1ncccc1OCCCCCC(=O)O)=N\NC1=NCCN1`, the TGI in experiment [1], in [2], in experiment [3], in [4], in experiment [5] and in experiment [6] was over 100 µM throughout.

Regarding `COCCO`, the total growth inhibition concentration (TGI) in experiment [1], in [2], in experiment [11], in experiment [3], in [4] and in experiment [5] was over 100 µM throughout. For the same compound, the total growth inhibition concentration (TGI) in experiment [6] and in experiment [7] was over 100 µM each time.

Turning to `COC1/C=C/C(C)C(OC)CC(O)/C=C/C(C)C(C(C)C(OC)C(C)CCC(=O)C(C)C(C/C=C/N(C)C=O)OC)OC(=O)/C=C/C=C(\C)CC(OC)C(OC)C2=CC(=O)O[C@@H](C(C)C(OC)C1)[C@H]2O` (some centres not stated), the TGI in experiment [1] came to 0.121 µM; in [8], 0.0835 µM; in [11], 0.0859 µM; in experiment [9], 0.0862 µM; in experiment [3] it was 0.0613 µM; in experiment [12] it was 0.195 µM. Besides, the TGI in experiment [6] is 0.0526 µM; in [7] it was 0.12 µM.

Turning to `Nc1[nH]c(=O)nc2sc3c(c12)CCCC3`, the TGI is over 100 µM in [1]; over 100 µM in [8]; over 100 µM in experiment [2]; 64.4 µM in experiment [11]; over 100 µM in experiment [9]; over 100 µM in experiment [3]. Further, the TGI in [10], in experiment [4], in experiment [5] and in experiment [7] was over 100 µM throughout.

Consider `NC(=O)c1cnc2sc3ccccc3n2c1=O`, for which the concentration for total growth inhibition (TGI) in [1], in experiment [8], in experiment [2], in experiment [11], in [9] and in [3] was over 100 µM throughout. Further, the TGI in [10], in experiment [4], in [5] and in experiment [6] was over 100 µM throughout.

As to `C#CCNC(=O)CCC(N)C(=O)O` (configuration not stated), the TGI in experiment [1], in [2], in experiment [11], in experiment [3], in experiment [4] and in [5] was over 100 µM each time. In addition, the TGI in experiment [6] and in experiment [7] was over 100 µM each time.

Turning to `Cn1c(-c2ccccc2)cc(-c2ccc3c(c2)OCO3)c1-c1cccs1`, the TGI in experiment [1], in [2], in experiment [11], in experiment [9], in [3] and in [12] was over 100 µM throughout. The concentration for total growth inhibition (TGI) in experiment [10], in [4], in experiment [5] and in [7] was over 100 µM throughout.

On to `COc1cc(/C=C2\C(=O)N(c3cccc(Cl)c3)C(c3ccccc3)S2(=O)=O)cc(OC)c1OC` (configuration not stated), for which the TGI in experiment [1], in experiment [8], in [3], in experiment [12], in experiment [10] and in experiment [4] was over 100 µM throughout. The TGI in experiment [5], in experiment [6] and in experiment [7] was over 100 µM in each case.
